This is an account of results in US8956824B2, “Methods for identifying allosteric modulators of ship polypeptides” (British Columbia Cancer Agency Branch, priority 2006, dated 2015).

Entries after “also recorded” stand apart in the source; their conditions may differ.

Assay [1] concerns 100 protein kinase and phosphatase targets. In words: In vitro kinase/phosphatase screen. The class given is biochemical. The settings on record: 2 μM final concentration; changes <25% not considered significant. The protocol:
Protein kinase assays were performed at 30° C. for 15 min in a final volume of 25 μL. The assay was initiated by the addition of [32P]-ATP and the reaction mixture incubated at 30° C. for 15 minutes. After the 15 minute incubation period, the assay was terminated by spotting 20 μl of the reaction mixture onto phosphocellulose P81 plate. The phosphocellulose P81 plate was washed 3 times for approximately 15 minutes each in a 1% phosphoric acid solution. The radioactivity on the P81 plate was counted in the presence of scintillation fluid in a scintillation counter. Protein phosphatase activities were determined using pNPP as substrate. Assays were performed at 37° C. for 15 min in a […]. The assay was started by incubating the reaction mixture at 37° C. for 15 minutes. After the 15 minutes incubation period, the assay was terminated by the addition of 25 μl of 2N NaOH stopping solution. The absorbance of the reaction solution was measured in a spectrophotometer at 410 nm. The activity of the enzymes in the presence of AQX-MN100 was compared to that in the vehicle control and expressed as a % change in activity relative to that observed in the vehicle control. Changes in activity of <25% were not considered significant. _

The next assay relates to J16 cells. In words: Inositol phospholipid analysis in LPS-stimulated macrophages. The class given is cell-based, mouse. The protocol: Inositol phospholipid analysis. J16 cells, a macrophage cell line immortalized from C57B16 mice, were grown in 10% FCS in IMDM supplemented with 10 μM 2-mercaptoethanol, 150 μM monothioglycolate (MTG) and 1 mM glutamine. 5×10^6 cells were plated the night before in 10 cm tissue culture dishes. The next day, cells were washed three times with phosphate-free medium before being starved in phosphate free RPMI (MP Biomedicals, Irvine, Calif.) supplemented with 10% dialyzed FCS (Invitrogen, Burlington, Ont) and 1% RPMI for 2 hrs. Cells were then labeled with 1.0 mCi of ^32P-labeled orthophosphate (MP Biomedicals, Irvine, Calif.)/ml for 2 hrs at 37° C. Cells were pretreated for 30 mM with AQX-016A, LY294004 or vehicle prior to stimulation with LPS (50 ng/ml) for 15 min. Extraction of inositol phospholipids and HPLC analysis of deacylated lipids were performed as described previously (16). The amount of radioactivity contained in the elution peak for each lipid (two to five fractions) was summed to give the total counts for each lipid, and data were normalized to the first 60 fractions to adjust for fluctuations in total lipid labeling and recovery between samples. Data are expressed as the mean+/− the SEM of three independent replicates for each stimulation condition and the experiment was repeated twice.

Consider `Cc1cc(O)cc2c1[C@]1(C)CC[C@H]3C(C)(C)CCC[C@]3(C)[C@H]1C2` [AQX-MN100], for which, in assay [1], the “activity on a panel of 100 kinases and phosphatases” value is “very little activity; also recorded: selectively enhances SHIP enzyme activity”.

With `Cc1cc(O)c(O)c2c1[C@]1(C)CC[C@H]3C(C)(C)CCC[C@]3(C)[C@H]1C2` [AQX-016A], the “PIP3 levels after LPS stimulation” value in the assay with J16 cells (30 min pretreatment with 5 mg/mL AQX-016A or 25 μM LY294002, LPS 15 min) is on record as “abolished this increase”. The “PI-3,4-P2 levels after LPS stimulation” value in the assay on J16 cells (30 min pretreatment with AQX-016A or 25 μM LY294002, LPS 15 min) is on record as “corresponding increase”.
